Measured values reported in patent publication US10125075B2, “P-toluic acid production method” (TORAY INDUSTRIES, INC., priority 2015, dated 2018).
Converted amounts (≈) assume the structure as drawn. Values belong to the compound of their own block, whether it stands above or below them.

Experiments:
physchem = settings: 25 °C, pH 7, aqueous buffer
solubility in water = settings: 25 °C
[1] = pH 7, 25° C.; 'known to be'; cited from earlier work

Compound: CC1C(O)C=C(C(=O)O)CC1O (stereo not shown) [Compound (1)]
- solubility (physchem): ≥ 50 mg/mL

- solubility (solubility in water; pH 7, aqueous buffer): ≥ 50 mg/mL
Compound: CC1C(O)CC(O)(C(=O)O)CC1O (stereo not shown) [Compound (2)]

- solubility (solubility in water; pH 0, aqueous buffer): ≤ 0.1 mg/mL
Compound: Cc1ccc(C(=O)O)cc1 [p-toluic acid]
- solubility in water [1]: 0.3 mg/mL (≈ 2.2 mM)
